# Laboratory results reported in patent publication US20250205192A1, “METHODS AND MATERIALS FOR TREATING PANCREATIC DISEASES AND DISORDERS” (MAYO FOUNDATION FOR MEDICAL EDUCATION AND RESEARCH, priority 2022, published 2025).
# Entries after “also recorded” stand apart in the source; their conditions may differ.
# Tested on: male CD-1 mice
# Test: Intraperitoneal GTL injection in mice, peritoneal cavity assessed for nodules, adhesions and fibrosis after 1 week
# Format: in vivo
# Description: 25% glyceryl trilinoleate (GTL) homogenous suspension in saline was prepared by heating, mixing, and sonication.
# Agent 767 was dissolved in a 25% sonicated suspension of GTL in saline. This was prepared by adding […] of the 25% GTL suspension to 10 mg of 767 at room temperature. The solution was then mixed, heated gently to 37-40° C., and sonicated to ensure homogeneous emulsion.
# Each experiment used 4 male CD-1 mice (35-39 grams).
# Two mice were each given 0.2 mL of 25% GTL by intraperitoneal injection.
# Two mice were given 0.2 mL of 767 in 25% GTL by intraperitoneal injection.
# Mice were sacrificed after 1 week, and the peritoneal cavity was assessed for nodules.
Compound,"nodules in the peritoneal cavity and in the vicinity of the pancreas (mice given 0.2 mL of 767 in 25% GTL by intraperitoneal injection, sacrificed after 1 week, compared with GTL only)","adhesions in the peritoneal cavity in spaces away from the pancreas (mice given 767 in 25% GTL intraperitoneally, 1 week)","adherence of duodenum, pancreas and spleen after GTL alone (en bloc excised organs from mice given GTL intraperitoneally)","peritoneal appearance (nodules and strands) after GTL alone (mice given 0.2 mL of 25% GTL by intraperitoneal injection, 1 week, compared with control mice)","pancreatitis abnormalities by blood urea nitrogen (BUN), glucose or albumin levels after GTL alone (mice given GTL intraperitoneally)",fibrosis of the wall of the nodules (Sirius red stain) after GTL alone (nodules from mice given GTL intraperitoneally)
CCCCCCCCCCC[C@@H](C[C@@H]1OC(=O)[C@H]1CC)OC(=O)[C@H](C)NC=O [compound 767],did not have noticeable nodules,prevented adhesions,–,–,–,–
"CCCCC/C=C\C/C=C\CCCCCCCC(=O)OCC(COC(=O)CCCCCCC/C=C\C/C=C\CCCCC)OC(=O)CCCCCCC/C=C\C/C=C\CCCCC [GTL, glyceryl trilinoleate]",–,–,adherent and difficult to separate,had nodules and strands; also recorded: had clearly discernable nodules,did not exhibit pancreatitis abnormalities,strongly positive for fibrosis
